Assay results reported in patent US11162129B2, “Photoprotective mixtures as imaging reagents in sequencing-by-synthesis” (IsoPlexis Corporation, priority 2016, dated 2021).

Excerpt: Components in various photoprotective imaging mixtures as described herein have been tested for solubility and stability against precipitation and discoloration in imaging solution formulation using […] as the base buffer.

| optimal concentration window in imaging solution formulation | Structure (SMILES) |
| --- | --- |
| 10 to 20 mM | CCOC(=O)c1ccc(O)c(O)c1 [3,4-Dihydroxybenzoic Acid Ethyl Ester, 3,4-dihydroxybenzoic acid ethyl ester] |
| 5 to 50 mM | C[N+](C)(C)CC(O)CC(=O)[O-] (stereo not drawn) [Carnitine, carnitine] |
| 5 to 15 mM | Cc1c(C)c2c(c(C)c1O)CCC(C)(C(=O)O)O2 (stereo not drawn) [Trolox, 6-hydroxy-2,5,7,8-tetramethylchromane-2-carboxylic acid] |
